# Data taken from ChEMBL document CHEMBL1157406, “Cytotoxic metabolites from the fungal endophyte Alternaria sp. and their subsequent detection in its host plant Polygonum senegalense” (J Nat Prod, 2008).
# Tested on: L5178Y
# Experiment: Cytotoxicity against mouse L5178Y cells at 10 ug/ml by MTT assay
# Format: functional
smiles,measurement,value
CC[C@H](C)[C@@H]1NC(=O)C(C(C)=O)=C1O [TENUAZONIC ACID],Activity,57.9%
Cc1cc(=O)c2c(C)cc(O)cc2o1,Activity,95%
COc1cc(O)c2c(=O)oc3cc(OS(=O)(=O)O)cc(C)c3c2c1,Activity,89%
